According to patent US20250270227A1, “CAMPTOTHECIN DERIVATIVE, AND PHARMACEUTICAL COMPOSITION AND USE THEREOF” (SIMCERE ZAIMING PHARMACEUTICAL CO., LTD., priority 2021, published 2025):
Read-outs that look alike come from different tables or passages of the source.

Key:
[1] = Metabolic stability in liver microsomes; type: in vitro ADME, mouse; settings: for half-life at 1 μM: CD-1, mouse, microsomes
Protocol: (§1) The metabolic stability of the compounds of the present disclosure in liver microsomes was determined by the following experimental method.
(§2) • 1. Human liver microsomes (Corning 452117), Beagle dog liver microsomes (XENOTECH D1000), SD rat liver microsomes (XENOTECH R1000) and CD-1 mouse liver microsomes (XENOTECH M1000) • 2. Na2HPO4 (Tianjin Guangfu Fine Chemical Research Institute 20180130) • 3. KH2PO4 (Tianjin Guangfu Fine Chemical Research Institute 20180920) • 4. MgCl2 (Tianjin Guangfu Fine Chemical Research Institute 20191216) • 5. NADPH (Solarbio 1216C022) • 6. Positive control compound verapamil (Sigma MKBV4993V) • 7. AB Sciex API4000 liquid chromatography-mass spectrometry
(§3) • 1. Preparation of 100 mM phosphate buffered saline (PBS): 7.098 g of Na2HPO4 was weighed, 500 mL of pure water was added and subjected to ultrasonic dissolution to obtain solution A. 3.400 g of KH2PO4 was weighed, 250 mL of pure water was added and subjected to ultrasonic dissolution to obtain solution B. Solution A was placed on a stirrer and solution B was slowly added until the pH value reached 7.4 to prepare 100 mM PBS buffer. • 2. Preparation of reaction system
(§4) The reaction system was prepared according to the following table:
(§5) • 3. The reaction system was placed in a 37° C. water bath and pre-incubated for 10 min. 40 μL of 10 mM NADPH solution (NADPH was dissolved in 100 mM phosphate buffer) was added to the reaction system with the final concentration of NADPH being 1 mM. 40 μL of phosphate buffer was used instead of NADPH solution as negative control. The role of the negative control was to exclude the effect of the chemical stability of the compounds themselves. • 4. 4 μL of 100 μM compound of the present disclosure and the positive control compound verapamil were added to the reaction system to initiate the reaction, with the final concentration of the compound being 1 μM. • 5. After thorough mixing on a vortex oscillator, 50 μL of the incubated sample was taken out at 0.5 min, 15 min, 30 min, 45 min and 60 min, respectively, and the reaction was stopped with 200 μL of glacial acetonitrile containing internal standard. The sample was centrifuged at 3220 g for 45 min. […]
(§6) All the data was calculated by the Microsoft Excel software. The peak area was detected by extracting the ion chromatogram. The in vitro half-life (t1/2) of the compound was determined by performing linear fitting of the natural logarithm of elimination percent of the compound and time.
(§7) The in vitro half-life (t1/2) was calculated by means of the slope k: […]
(§8) The in vitro intrinsic clearance (unit: μL/min/mg protein) was calculated using the following equation: […]

[2] = molecular target: hERG potassium ion channel (Homo sapiens (Human), UniProt Q12809); test: hERG inhibitory activity (automated patch clamp, CHO cell line stably expressing hERG); type: cell-based
Protocol: The inhibition of hERG activity by the compounds of the present disclosure was determined by the following experimental method.
A CHO cell line stably expressing hERG ion channel was purchased from B′SYS GmbH (Switzerland). The cells were cultured in F-12 (HAM) medium containing 10% FBS buffer, 100 U/mL penicillin-streptomycin, 100 μg/mL hygromycin and 100 μg/mL G418. Trypsin substitute TrypLE™ Express was used for digestion and passage, passaging three times per week and maintaining about 80% confluence.
Iii. Preparation of Intracellular/Extracellular Fluid and Preparation of Solution of Compound to be Tested
• 1) NMDG 60 standard extracellular fluid: 80 mM sodium chloride, 60 mM NMDG, 4 mM potassium chloride, 2 mM calcium chloride, 1 mM magnesium chloride, 5 mM polyglucose, 10 mM HEPES, pH adjusted to 7.4 with HCl, osmotic pressure 289 mOsm/kg; • 2) NMDG 60 cell sealing solution: 80 mM sodium chloride, 60 mM NMDG, 4 mM potassium chloride, 10 mM calcium chloride, 1 mM magnesium chloride, 5 mM polyglucose, 10 mM HEPES, pH adjusted to 7.4 with HCl, osmotic pressure 313 mOsm/kg; • 3) Chip filling solution: 140 mM sodium chloride, 4 mM potassium chloride, 5 mM polyglucose, 10 mM HEPES, pH adjusted to 7.4 with NaOH, osmotic pressure 289 mOsm/kg; • 4) Standard extracellular fluid: 140 mM sodium chloride, 4 mM potassium chloride, 2 mM calcium chloride, 1 mM magnesium chloride, 5 mM polyglucose, 10 mM HEPES, pH adjusted to 7.4 with NaOH, osmotic pressure 298 mOsm/kg.
KF110 intracellular fluid: 10 mM EGTA, 10 mM HEPES, 10 mM potassium chloride, 10 mM sodium chloride, 110 mM potassium fluoride, pH adjusted to 7.2 with KOH, osmotic pressure greater than 280 mOsm/kg.
• 1) The compound to be tested was dissolved in DMSO and prepared into a stock solution with a final concentration of 10 mM. • 2) The stock solution was subjected to gradient dilution with DMSO as a solvent at a ratio of 1:3 into solutions with other three intermediate concentrations (mM): 3.33, 1.11 and 0.37, respectively. • 3) Before the start of the experiment, the gradient solution of the compound to be tested was diluted again with the extracellular fluid according to a ratio of 1:500 into a series of working solutions with final concentrations of: 20, 6.66, 2.22 and 0.74 (μM), respectively, while the 60 μM working solution was diluted from 10 mM stock solution according to a ratio of 3:500. […]

[3] = Metabolic stability in liver microsomes; type: in vitro ADME, human; settings: for half-life at 1 μM: human, microsomes
Protocol: as §1, §2, §3, §4, §5, §6, §7, §8

[4] = pH 7.4, mouse liver microsomes 0.5 mg/mL, 1 μM compound, 1 mM NADPH, 37° C., read-out: Stability in mouse liver microsomes t1/2
[5] = pH 7.4, human liver microsomes 0.5 mg/mL, 1 μM compound, 1 mM NADPH, 37° C., read-out: Stability in human liver microsomes t1/2

Chain of hERG potassium ion channel (Q12809 whole entry): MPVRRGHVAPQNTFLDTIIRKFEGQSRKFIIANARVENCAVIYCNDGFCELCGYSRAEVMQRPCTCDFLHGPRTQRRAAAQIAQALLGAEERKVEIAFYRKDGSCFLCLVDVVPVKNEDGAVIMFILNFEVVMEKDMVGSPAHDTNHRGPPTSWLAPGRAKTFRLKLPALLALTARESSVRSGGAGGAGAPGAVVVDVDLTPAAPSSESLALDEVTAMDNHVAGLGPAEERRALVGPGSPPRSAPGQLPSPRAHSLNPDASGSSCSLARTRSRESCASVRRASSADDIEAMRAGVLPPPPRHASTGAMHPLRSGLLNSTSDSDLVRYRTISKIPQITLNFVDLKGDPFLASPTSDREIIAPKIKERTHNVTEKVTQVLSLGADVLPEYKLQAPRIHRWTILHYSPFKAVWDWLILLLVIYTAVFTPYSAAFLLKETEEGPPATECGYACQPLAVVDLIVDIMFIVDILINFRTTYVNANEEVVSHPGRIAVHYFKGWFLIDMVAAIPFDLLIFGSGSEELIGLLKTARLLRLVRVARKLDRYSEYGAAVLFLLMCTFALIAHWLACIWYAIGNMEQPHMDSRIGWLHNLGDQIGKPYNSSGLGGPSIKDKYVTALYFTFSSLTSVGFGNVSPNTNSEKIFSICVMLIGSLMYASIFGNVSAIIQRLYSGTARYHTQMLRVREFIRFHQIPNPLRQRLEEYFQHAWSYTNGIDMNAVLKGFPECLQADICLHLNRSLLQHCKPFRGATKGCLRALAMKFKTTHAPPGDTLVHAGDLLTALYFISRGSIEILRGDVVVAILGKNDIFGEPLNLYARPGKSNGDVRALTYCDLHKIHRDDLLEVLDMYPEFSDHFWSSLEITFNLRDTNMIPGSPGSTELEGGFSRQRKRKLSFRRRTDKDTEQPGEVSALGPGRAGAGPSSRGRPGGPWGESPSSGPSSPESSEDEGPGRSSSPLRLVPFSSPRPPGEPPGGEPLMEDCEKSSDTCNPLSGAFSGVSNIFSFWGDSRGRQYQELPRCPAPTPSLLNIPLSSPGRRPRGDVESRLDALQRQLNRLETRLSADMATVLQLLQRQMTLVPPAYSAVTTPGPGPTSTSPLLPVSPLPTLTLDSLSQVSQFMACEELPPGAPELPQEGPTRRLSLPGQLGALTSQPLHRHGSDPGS

SMILES	half-life at 1 μM [1, 4] [h]	IC50 [2] [µM]	half-life at 1 μM [3, 5] [h]	Stability in mouse liver microsomes t1/2 ([1]; mouse liver microsomes 0.5 mg/mL, 1 μM compound, 1 mM NADPH, 37° C.) [h]	IC50 ([2]; read-out: hERG potassium ion channel inhibitory activity IC50, CHO-hERG, SyncroPatch 384i, 0.37-30 μM) [µM]	Stability in human liver microsomes t1/2 ([3]; human liver microsomes 0.5 mg/mL, 1 μM compound, 1 mM NADPH, 37° C.) [h]	half-life at 1 μM ([1]; pH 7.4) [h]	half-life at 1 μM ([3]; pH 7.4) [h]
CC[C@@]1(O)C(=O)OCc2c1cc1n(c2=O)Cc2c-1nc1cc3c(cc1c2CNC(=O)C(O)C1CC1)OCO3 (single isomer, unassigned) [Compound 14-P1]	1.21	> 30	1.1					
CC[C@@]1(O)C(=O)OCc2c1cc1n(c2=O)Cc2c-1nc1cc3c(cc1c2CNC(=O)C(O)C1CC1)OCO3 (single isomer, unassigned) [Compound 14-P2]				1.08	> 30	0.835		
CC[C@@]1(O)C(=O)OCc2c1cc1n(c2=O)Cc2c-1nc1cc3c(c(F)c1c2CNC(=O)[C@@H](O)C1CC1)OCO3 (single isomer, unassigned) [Compound 37-P1]		> 30					2.23	1.75
[2H]C1([2H])Oc2cc3nc4c(c(CNC(=O)C(O)C5CC5)c3cc2O1)Cn1c-4cc2c(c1=O)COC(=O)[C@]2(O)CC (stereo partly drawn) [Compound 39, 2-cyclopropyl-N-(((S)-7-ethyl-7-hydroxy-8,11-dioxo-7,8,11,13-tetrahydro-10H-[1,3]dioxolo[4,5-g]pyrano[3′,4′:6,7]indolizino[1,2-b]quinolin-14-yl-2,2-d2)methyl)-2-hydroxyacetamide]	4.47	> 30	4.01					
